Seven molecules from article PMC10673369, “Preliminary SAR of Novel Pleuromutilin–Polyamine Conjugates” (Microorganisms, 2023) can be followed below.

In brackets after ≈: the same amount, converted by molar mass.

One experiment deals with E. coli ATCC 25922. The experiment can be described thus: MIC, broth dilution, E. coli. Format: cell-based, Escherichia coli. Particulars: for MIC: Escherichia coli, ATCC25922, mean (n = 3). As for the experimental part: (§1) The susceptibility of bacterial strains S. aureus (ATCC 25923), E. coli (ATCC 25922), and P. aeruginosa (ATCC 27853 or PAO1) to antibiotics and compounds was determined using reported protocols. Additional antimicrobial evaluation against MRSA (ATCC 43300), Klebsiella pneumoniae (ATCC 700603), A. baumannii (ATCC 19606), Candida albicans (ATCC 90028), and Cryptococcus neoformans (ATCC 208821) was undertaken at the Community for Open Antimicrobial Drug Discovery at The University of Queensland (Australia) according to their standard protocols as reported previously. […]
(§2) 2.3. Antimicrobial Assays
(§3) The susceptibility of bacterial strains S. aureus (ATCC 25923), E. coli (ATCC 25922), and P. aeruginosa (ATCC 27853 or PAO1) to antibiotics and compounds was determined in microplates using the standard broth dilution method in accordance with the recommendations of the Comité de l’AntibioGramme de la Société Française de Microbiologie (CA-SFM). Briefly, the minimal inhibitory concentrations (MICs) were determined with an inoculum of 10^5 CFU in 200 µL of Mueller–Hinton broth (MHB) containing two-fold serial dilutions of each drug. The MIC was defined as the lowest […]
(§4) determine all MICs, the measurements were independently repeated in triplicate. Additional antimicrobial evaluation against MRSA (ATCC 43300), Klebsiella pneumoniae (ATCC 700603), A. baumannii (ATCC 19606), Candida albicans (ATCC 90028), and Cryptococcus neoformans (ATCC 208821) was undertaken at the Community for Open Antimicrobial Drug Discovery at The University of Queensland (Australia) according to their standard protocols as reported previously. […]

The subject of another experiment is P. aeruginosa PAO1. As to the kind of experiment: MIC, broth dilution, P. aeruginosa PAO1. Format: cell-based. Conditions: mean (n = 3); for MIC: Pseudomonas aeruginosa. As for the experimental part:
as §1, §2, §3, §4
(§5) For C. neoformans, resazurin was added at 0.006% final concentration to each well and incubated for a further 3 h before MICs were determined by measuring […]
(§6) Colistin and vancomycin were used as positive bacterial inhibitor standards for Gram-negative and Gram-positive bacteria, respectively. Fluconazole was used as a positive fungal inhibitor standard for C. albicans and C. neoformans. The antibiotics were provided in […], with 3 above and 3 below its MIC value, and plated into the first 8 wells of column 23 of the 384-well NBS plates. The quality control (QC) of the assays was determined by the antimicrobial controls and the Z'-factor (using positive and negative controls). Each plate was deemed to fulfil the quality criteria (pass QC) if the Z'- […]
(§7) inhibition at their highest concentration, and no growth inhibition at their lowest concentration.
(§8) 2.4. Determination of the MICs of Antibiotics in the Presence of Synergizing Compounds

A further experiment deals with A. baumannii ATCC 19606. The experiment can be described thus: MIC, CO-ADD broth microdilution, A. baumannii. It counts as cell-based. Particulars: for MIC: Acinetobacter baumannii, ATCC19606, mean (n = 2). As for the experimental part:
as §1, §2
The susceptibility of bacterial strains S. aureus (ATCC 25923), E. coli (ATCC 25922), and P. […]
baumannii (ATCC 19606), Candida albicans (ATCC 90028), and Cryptococcus neoformans (ATCC 208821) was undertaken at the Community for Open Antimicrobial Drug Discovery at The University of Queensland (Australia) according to their standard protocols as reported previously. For antimicrobial assays, the tested strains were cultured in either Luria broth (LB) (In Vitro Technologies, USB75852), nutrient broth (NB) (Becton Dickson, 234000), or MHB at 37 °C overnight. A sample of culture was then diluted 40-fold in fresh MHB and incubated at 37 °C for 1.5−2 h. The compounds were serially diluted 2-fold across the wells of 96-well plates (Corning 3641, non-binding surface), with compound concentrations ranging from 0.015 to 64 µg/ mL, and plated in duplicate. The resultant mid-log phase cultures were diluted to the final concentration of 1 × 10^6 CFU/mL; then, 50 µL was added to each well of the compound-containing plates, giving a final compound concentration range of 0.008 to 32 µg/mL and a cell density of 5 × 10^5 CFU/mL. All plates were then covered and incubated at 37 °C for 18 h. Resazurin was added at 0.001% final concentration to each well and incubated for 2 h before MICs […]
as §5, §6, §7, §8

A further experiment concerns P. aeruginosa ATCC 27853. The experiment can be described thus: Antibiotic enhancement of doxycycline. It counts as cell-based. Conditions: for Dox/P.a.: concentration required to restore doxycycline activity: doxycycline at 4.5 µM (2 µg/mL); for Dox/P.a.: fold change, ratio between intrinsic MIC of test compound and combination MIC: doxycycline at 4.5 µM. As for the experimental part:
Antibiotic restoring enhancer concentrations were determined using reported protocols (see Supplementary File).
Briefly, restoring enhancer concentrations were determined with an inoculum of 5x10^5 CFU in 200
µL of MHB containing two-fold serial dilutions of each derivative in the presence of doxycycline at 4.5
The lowest concentration of the polyamine
These measurements were independently repeated in triplicate. […]

Turning to `C=C[C@]1(C)C[C@@H](OC(=O)CSCCN(CC)CC)[C@]2(C)[C@H](C)CC[C@]3(CCC(=O)[C@H]32)[C@@H](C)[C@@H]1O` [Compound 2, Tiamulin, reference compound], the MIC is 200 µM (≈ 98.8 µg/mL) in the experiment with E. coli ATCC 25922, 800 µM in the experiment with P. aeruginosa PAO1 and greater than 64.8 µM in the experiment with A. baumannii ATCC 19606. Further, the “MIC E.c.” value in the experiment on E. coli ATCC 25922 (mean (n = 3)) is reported as “no activity”. Also, in the experiment on P. aeruginosa PAO1, the “MIC P.a.” value is given as “no activity”. In the experiment with A. baumannii ATCC 19606 (mean (n = 2)), the “MIC A.b.” value is recorded as “no activity”. Besides, the “Dox/P.a.: concentration required to restore doxycycline activity” value (“Dox/P.a.: concentration required” below) with P. aeruginosa ATCC 27853 is listed as greater than 405 µM.

`C=C[C@]1(C)C[C@@H](OC(=O)CNCCCNCCCCNCCCNCC(=O)O[C@@H]2C[C@@](C)(C=C)[C@@H](O)[C@H](C)[C@]34CCC(=O)[C@H]3[C@@]2(C)[C@H](C)CC4)[C@]2(C)[C@H](C)CC[C@]3(CCC(=O)[C@H]32)[C@@H](C)[C@@H]1O.O=C(O)C(F)(F)F.O=C(O)C(F)(F)F.O=C(O)C(F)(F)F.O=C(O)C(F)(F)F` [Compound 9a, N^1,N^1′-(Butane-1,4-diyl)bis(N^3-(2-(((3aR,4R,5R,7S,8S,9R,9aS,12R)-8-hydroxy-4,7,9,12-tetramethyl-3-oxo-7-vinyldecahydro-4,9a-propanocyclopenta [8]annulen-5-yl)oxy)-2-oxoethyl)propane-1,3-diaminium) 2,2,2-trifluoroacetate]: the minimal inhibitory concentration (MIC) is 18.1 µM with E. coli ATCC 25922, 72.5 µM in the experiment on P. aeruginosa PAO1 and greater than 23.2 µM with A. baumannii ATCC 19606. Further, the “Dox/P.a.: fold change, ratio between intrinsic MIC of test compound and combination MIC” value in the experiment with P. aeruginosa ATCC 27853 turned out to be 4. Also, the “Dox/P.a.: concentration required” value in the experiment on P. aeruginosa ATCC 27853 amounted to 18.1 µM.

For the molecule `C=C[C@]1(C)C[C@@H](OC(=O)CNCCCNCCCCCCNCCCNCC(=O)O[C@@H]2C[C@@](C)(C=C)[C@@H](O)[C@H](C)[C@]34CCC(=O)[C@H]3[C@@]2(C)[C@H](C)CC4)[C@]2(C)[C@H](C)CC[C@]3(CCC(=O)[C@H]32)[C@@H](C)[C@@H]1O.O=C(O)C(F)(F)F.O=C(O)C(F)(F)F.O=C(O)C(F)(F)F.O=C(O)C(F)(F)F` [Compound 9b, N^1,N^1′-(Hexane-1,6-diyl)bis(N^3-(2-(((3aR,4R,5R,7S,8S,9R,9aS,12R)-8-hydroxy-4,7,9,12-tetramethyl-3-oxo-7-vinyldecahydro-4,9a-propanocyclopenta [8]annulen-5-yl)oxy)-2-oxoethyl)propane-1,3-diaminium) 2,2,2-trifluoroacetate], the MIC in the experiment with E. coli ATCC 25922 is 8.88 µM; in the experiment with P. aeruginosa PAO1, 142 µM; with A. baumannii ATCC 19606, greater than 22.7 µM. Besides, the “Dox/P.a.: fold change, ratio between intrinsic MIC of test compound and combination MIC” value in the experiment on P. aeruginosa ATCC 27853 came out at 4. Moreover, the “Dox/P.a.: concentration required” value in the experiment on P. aeruginosa ATCC 27853 was 35.5 µM.

With `C=C[C@]1(C)C[C@@H](OC(=O)CNCCCNCCCCCCCNCCCNCC(=O)O[C@@H]2C[C@@](C)(C=C)[C@@H](O)[C@H](C)[C@]34CCC(=O)[C@H]3[C@@]2(C)[C@H](C)CC4)[C@]2(C)[C@H](C)CC[C@]3(CCC(=O)[C@H]32)[C@@H](C)[C@@H]1O.O=C(O)C(F)(F)F.O=C(O)C(F)(F)F.O=C(O)C(F)(F)F.O=C(O)C(F)(F)F` [Compound 9c, N^1,N^1′-(Heptane-1,7-diyl)bis(N^3-(2-(((3aR,4R,5R,7S,8S,9R,9aS,12R)-8-hydroxy-4,7,9,12-tetramethyl-3-oxo-7-vinyldecahydro-4,9a-propanocyclopenta [8]annulen-5-yl)oxy)-2-oxoethyl)propane-1,3-diaminium) 2,2,2-trifluoroacetate], the minimum inhibitory concentration (MIC) in the experiment with E. coli ATCC 25922 was 35.2 µM; in the experiment on P. aeruginosa PAO1, greater than 141 µM; in the experiment on A. baumannii ATCC 19606, greater than 22.5 µM. Moreover, in the experiment with P. aeruginosa ATCC 27853, the “Dox/P.a.: fold change, ratio between intrinsic MIC of test compound and combination MIC” value is on record as 1. The “Dox/P.a.: concentration required” value in the experiment with P. aeruginosa ATCC 27853 was 141 µM.

As for `C=C[C@]1(C)C[C@@H](OC(=O)CNCCCNCCCCCCCCNCCCNCC(=O)O[C@@H]2C[C@@](C)(C=C)[C@@H](O)[C@H](C)[C@]34CCC(=O)[C@H]3[C@@]2(C)[C@H](C)CC4)[C@]2(C)[C@H](C)CC[C@]3(CCC(=O)[C@H]32)[C@@H](C)[C@@H]1O.O=C(O)C(F)(F)F.O=C(O)C(F)(F)F.O=C(O)C(F)(F)F.O=C(O)C(F)(F)F` [Compound 9d, N^1,N^1′-(Octane-1,8-diyl)bis(N^3-(2-(((3aR,4R,5R,7S,8S,9R,9aS,12R)-8-hydroxy-4,7,9,12-tetramethyl-3-oxo-7-vinyldecahydro-4,9a-propanocyclopenta [8]annulen-5-yl)oxy)-2-oxoethyl)propane-1,3-diaminium) 2,2,2-trifluoroacetate], the minimum inhibitory concentration (MIC) in the experiment with E. coli ATCC 25922 is 70 µM; in the experiment with P. aeruginosa PAO1, greater than 139 µM; with A. baumannii ATCC 19606 it was greater than 22.3 µM. Also, the “Dox/P.a.: fold change, ratio between intrinsic MIC of test compound and combination MIC” value in the experiment with P. aeruginosa ATCC 27853 is reported as 1. In addition, the “Dox/P.a.: concentration required” value in the experiment with P. aeruginosa ATCC 27853 stood at 139 µM.

For `C=C[C@]1(C)C[C@@H](OC(=O)CNCCCNCCCCCCCCCCNCCCNCC(=O)O[C@@H]2C[C@@](C)(C=C)[C@@H](O)[C@H](C)[C@]34CCC(=O)[C@H]3[C@@]2(C)[C@H](C)CC4)[C@]2(C)[C@H](C)CC[C@]3(CCC(=O)[C@H]32)[C@@H](C)[C@@H]1O.O=C(O)C(F)(F)F.O=C(O)C(F)(F)F.O=C(O)C(F)(F)F.O=C(O)C(F)(F)F` [Compound 9e, N^1,N^1′-(Decane-1,10-diyl)bis(N^3-(2-(((3aR,4R,5R,7S,8S,9R,9aS,12R)-8-hydroxy-4,7,9,12-tetramethyl-3-oxo-7-vinyldecahydro-4,9a-propanocyclopenta [8]annulen-5-yl)oxy)-2-oxoethyl)propane-1,3-diaminium) 2,2,2-trifluoroacetate], the minimal inhibitory concentration (MIC) against E. coli ATCC 25922 is 4.27 µM; with P. aeruginosa PAO1, greater than 88 µM; with A. baumannii ATCC 19606 it was greater than 21.9 µM. In addition, in the experiment on P. aeruginosa ATCC 27853, the “Dox/P.a.: fold change, ratio between intrinsic MIC of test compound and combination MIC” value was 2. In addition, the “Dox/P.a.: concentration required” value with P. aeruginosa ATCC 27853 is recorded as 34.2 µM.

With `C=C[C@]1(C)C[C@@H](OC(=O)CNCCCNCCCCCCCCCCCCNCCCNCC(=O)O[C@@H]2C[C@@](C)(C=C)[C@@H](O)[C@H](C)[C@]34CCC(=O)[C@H]3[C@@]2(C)[C@H](C)CC4)[C@]2(C)[C@H](C)CC[C@]3(CCC(=O)[C@H]32)[C@@H](C)[C@@H]1O.O=C(O)C(F)(F)F.O=C(O)C(F)(F)F.O=C(O)C(F)(F)F.O=C(O)C(F)(F)F` [Compound 9f, N^1,N^1′-(Dodecane-1,12-diyl)bis(N^3-(2-(((3aR,4R,5R,7S,8S,9R,9aS,12R)-8-hydroxy-4,7,9,12-tetramethyl-3-oxo-7-vinyldecahydro-4,9a-propanocyclopenta [8]annulen-5-yl)oxy)-2-oxoethyl)propane-1,3-diaminium) 2,2,2-trifluoroacetate], the values for the minimal inhibitory concentration (MIC) against E. coli ATCC 25922, in the experiment with P. aeruginosa PAO1 and in the experiment on A. baumannii ATCC 19606 were 4.19 µM, 33.5 µM and 2.7 µM, respectively. Also, in the experiment with P. aeruginosa ATCC 27853, the “Dox/P.a.: fold change, ratio between intrinsic MIC of test compound and combination MIC” value amounted to 4. Also, the “Dox/P.a.: concentration required” value in the experiment with P. aeruginosa ATCC 27853 was determined as 8.38 µM.
